Molecules are shown by their SMILES.

The target of one assay is T1, recombinant mouse BCO1 (Mus musculus, UniProt Q9JJS6).
T1 construct: His-tag; made in house; host or cells: E. coli
T1 sequence (Q9JJS6 1-566): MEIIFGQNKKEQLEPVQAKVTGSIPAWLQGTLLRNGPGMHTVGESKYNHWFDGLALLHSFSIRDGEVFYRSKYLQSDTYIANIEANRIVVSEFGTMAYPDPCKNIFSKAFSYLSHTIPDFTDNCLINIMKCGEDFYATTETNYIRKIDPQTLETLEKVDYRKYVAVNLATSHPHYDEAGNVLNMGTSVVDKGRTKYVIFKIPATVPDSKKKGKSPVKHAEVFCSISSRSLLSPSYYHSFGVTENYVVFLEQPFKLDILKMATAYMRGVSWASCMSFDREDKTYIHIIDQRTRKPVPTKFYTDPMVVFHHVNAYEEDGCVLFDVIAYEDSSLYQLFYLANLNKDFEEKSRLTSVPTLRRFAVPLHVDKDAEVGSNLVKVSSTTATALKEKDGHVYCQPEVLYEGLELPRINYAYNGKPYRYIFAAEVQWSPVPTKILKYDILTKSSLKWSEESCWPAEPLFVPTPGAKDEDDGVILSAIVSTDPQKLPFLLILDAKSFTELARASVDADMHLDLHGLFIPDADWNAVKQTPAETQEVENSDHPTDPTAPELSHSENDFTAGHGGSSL
Kind of assay: In vitro inhibition of recombinant mouse BCO1 activity. In kind it is biochemical. The note with it: inhibitor 0–200 μM. An excerpt: Recombinant His-tag mouse BCO1 was produced in E.coli and purified using Talon CellThru (Clontech Labs, Inc., Mountain View, CA) resin as described previously. β-carotene was delivered in 1% octylthioglucoside. […] All other inhibitors were delivered in ethanol. […] The final concentration of ethanol in all samples was 1%. […] Data plotted as means±standard deviation; n = 3; […] Analysis was done in C57BL/6 wt (3 animals) and Bco1^-/- mice (13 animals).

In assay [1] the target is T2, RARβ (Homo sapiens, UniProt P10826).
T2 sequence (P10826 183-417 limits assumed): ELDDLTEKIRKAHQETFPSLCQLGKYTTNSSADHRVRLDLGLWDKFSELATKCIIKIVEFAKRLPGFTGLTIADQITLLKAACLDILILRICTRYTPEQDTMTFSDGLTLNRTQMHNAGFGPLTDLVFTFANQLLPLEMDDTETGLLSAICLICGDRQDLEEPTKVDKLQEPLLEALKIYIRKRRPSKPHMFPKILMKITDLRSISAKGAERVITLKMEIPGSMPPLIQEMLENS
Kind of assay: GeneBLAzer RAR-beta DA assay, antagonist mode (competition with at-RA). It counts as cell-based. The following applies: at-RA 0.5–1.5 nM; tested 10^−5 to 10^−9 M. How it is done: (§1) The potency of agonists and antagonists was measured by GeneBLAzer RAR-beta DA Assay Kit (ThermoFisher Scientific) according to the manufacturer’s recommendations.
The phenylretinamides may have the ability to modulate the expression of proteins and induce cell apoptosis via RAR-dependent and -independent pathways. […] Additionally, apoptosis of neuroblastoma cell lines was blocked by two retinoic acid receptor (RAR)-β/γ-specific antagonists, but not by a RARα-specific antagonist. […] However, in this case the specific RARα-specific antagonist AGN194301 could block fenretinde-induced apoptosis. […] Human retina-derived cells in culture show differences in expression of RAR receptors. […] Clonetics HRPE primary human cells specifically express only RARβ [50].
Fluorescence was measured at excitation (ex) 409 nm/emission (em) 460 and at ex 409nm/em 530 nm and the ratio was determined and plotted against a range of concentrations (10^−5 to 10^−9 M) of the tested compounds.

Assay [2] addresses T2, RARβ. Kind of assay: GeneBLAzer RAR-beta DA assay, agonist mode. It counts as cell-based. Here is the method:
as §1
The phenylretinamides may have the ability to modulate the expression of proteins and induce cell apoptosis via RAR-dependent and -independent pathways. […] Human retina-derived cells in culture show differences in expression of RAR receptors. […] Clonetics HRPE primary human cells specifically express only RARβ [50].

For the next assay, the target named is RBP4 (Homo sapiens, UniProt P02753). Kind of assay: Binding to RBP4. The note with it: data not shown.

As for `CCOc1ccc(NC(=O)/C=C(C)/C=C/C=C(C)/C=C/C2=C(C)CCCC2(C)C)cc1` [EPR, N-[4-ethoxyphenyl]retinamide], the “effect on BCO1 activity” value on recombinant mouse BCO1 is listed as “does not inhibit BCO1 activity”. In addition, the “competition with all-trans-retinoic acid” value on RARβ [1] is “cannot compete”. The EC50 (in general, the concentration that produces a half-maximal response) on RARβ [2] was determined as 4.4 µM. Moreover, the “RBP4 binding compared with MPR” value at RBP4 was “less potent inhibitor”.

These data come from publication PMC5407626 (PLoS ONE, 2017).
